Experimental data: PubChem BioAssay AID256 (DTP/NCI, 2004)
Several values for one entry are separate records, joined by “and”; a condition that tells them apart may be missing. Identical values can stand only once. Toxic doses and inconclusive results are not listed. The calls were made as follows: active = survival T/C of 150% or more; inactive = T/C below 125% in these data.

Test system: CD2F1 mice, L1210 leukemia ip, survival T/C
Assay: NCI In Vivo Anticancer Drug Screen. Data for tumor model L1210 Leukemia (intraperitoneal) in CD2F1 (CDF1) mice
Details: endpoint: mean survival time, higher = longer survival
Outline: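 Compound-dosed mice with transplantable tumor versus matched vehicle controls; endpoint ratio T/C reported.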

[1] = dose: 100.0 mg/kg/injection, schedule: Q04DX003 (ip), vehicle: saline
[2] = dose: 200.0 mg/kg/injection, schedule: Q04DX003 (ip), vehicle: saline
[3] = dose: 400.0 mg/kg/injection, schedule: Q04DX003 (ip), vehicle: saline
[4] = dose: 100.0 mg/kg/injection, schedule: Q01DX001 (ip), vehicle: saline with Tween-80
[5] = dose: 200.0 mg/kg/injection, schedule: Q01DX001 (ip), vehicle: saline with Tween-80
[6] = dose: 400.0 mg/kg/injection, schedule: Q01DX001 (ip), vehicle: saline with Tween-80
[7] = dose: 50.0 mg/kg/injection, schedule: Q04DX003 (ip), vehicle: saline with Tween-80
[8] = dose: 100.0 mg/kg/injection, schedule: Q04DX003 (ip), vehicle: saline with Tween-80
[9] = dose: 200.0 mg/kg/injection, schedule: Q04DX003 (ip), vehicle: saline with Tween-80
[10] = dose: 400.0 mg/kg/injection, schedule: Q04DX003 (ip), vehicle: saline with Tween-80
[11] = dose: 50.0 mg/kg/injection, schedule: Q04DX003 (ip), vehicle: saline
[12] = dose: 100.0 mg/kg/injection, schedule: Q04DX002 (ip), vehicle: saline with Tween-80
[13] = dose: 200.0 mg/kg/injection, schedule: Q04DX002 (ip), vehicle: saline with Tween-80
[14] = dose: 400.0 mg/kg/injection, schedule: Q04DX002 (ip), vehicle: saline with Tween-80
[15] = dose: 100.0 mg/kg/injection, schedule: Q01DX009 (ip), vehicle: saline
[16] = dose: 50.0 mg/kg/injection, schedule: Q01DX009 (ip), vehicle: saline with Tween-80

Measured: T/C

NC(=S)N/N=C/c1nccc2ccccc12
inactive: dose: 6.25 mg/kg/injection, schedule: Q01DX010 (oral), vehicle: saline 97 % of control | dose: 15.0 mg/kg/injection, schedule: Q01DX006 (iv), vehicle: saline 100 % of control | dose: 25.0 mg/kg/injection, schedule: Q01DX009 (sc), vehicle: saline 97 % of control | dose: 30.0 mg/kg/injection, schedule: Q01DX006 (iv), vehicle: saline 100 % of control | dose: 50.0 mg/kg/injection, schedule: Q01DX001 (sc), vehicle: saline 98 % of control | dose: 50.0 mg/kg/injection, schedule: Q01DX009 (sc), vehicle: saline 103 % of control | dose: 75.0 mg/kg/injection, schedule: Q01DX009 (ip), vehicle: saline with Tween-80 110 % of control | dose: 168.0 mg/kg/injection, schedule: Q01DX Z (ip), vehicle: saline 86 % of control | dose: 200.0 mg/kg/injection, schedule: Q01DX001 (sc), vehicle: saline 100 % of control | dose: 360.0 mg/kg/injection, schedule: Q01DX001 (ip), vehicle: saline 110 % of control

CC(C)(C)OCC(N)C(=O)OC(C)(C)C (centres undefined)
inactive: [1] 93 % of control | [2] 103 % of control | [3] 96 % of control

COC(=O)COc1ccccc1Cl
inactive: [4] 102 % of control | [5] 102 % of control | [6] 104 % of control

CCCCCC(=O)N1CCOCC1
inactive: dose: 25.0 mg/kg/injection, schedule: Q04DX003 (ip), vehicle: saline with Tween-80 98 % of control | [7] 98 % of control | [8] 104 % of control and 112 % of control | [9] 102 % of control | [10] 100 % of control

O=Cc1cc(Cl)cc(Cl)c1O.O=Cc1cc(Cl)cc(Cl)c1O.[Co]
inactive: [7] 90 % of control | [11] 100 % of control | [8] 89 % of control | [1] 96 % of control | [9] 94 % of control | [2] 100 % of control | [10] 103 % of control | [3] 96 % of control

CC(=O)NC1Cn2c3c(c(COC(N)=O)c2C1O)C(=O)C(Nc1ccccc1)=C(C)C3=O (centres undefined)
inactive: dose: 2.08 mg/kg/injection, schedule: Q01DX001 (ip), vehicle: carboxymethylcellulose (CMC) 86 % of control | dose: 3.1 mg/kg/injection, schedule: Q01DX001 (ip), vehicle: carboxymethylcellulose (CMC) 98 % of control | dose: 4.7 mg/kg/injection, schedule: Q01DX001 (ip), vehicle: carboxymethylcellulose (CMC) 93 % of control

C=CCC1(CO)CCCCC1O (centres undefined)
inactive: [12] 96 % of control | [13] 100 % of control | [14] 92 % of control

O=C(c1ccccc1Cl)c1cccc2ccccc12
inactive: [15] 110 % of control | dose: 200.0 mg/kg/injection, schedule: Q01DX009 (ip), vehicle: saline 96 % of control | dose: 400.0 mg/kg/injection, schedule: Q01DX009 (ip), vehicle: saline 94 % of control

CCOP(=O)(OCC)C1=C(SCC)C(F)(F)C(F)(F)C1(F)F
inactive: dose: 75.0 mg/kg/injection, schedule: Q01DX001 (ip), vehicle: other 104 % of control

O=CC(=O)c1ccc(O)cc1
inactive: dose: 6.25 mg/kg/injection, schedule: Q01DX009 (ip), vehicle: saline 101 % of control | dose: 12.5 mg/kg/injection, schedule: Q01DX009 (ip), vehicle: saline 97 % of control | dose: 25.0 mg/kg/injection, schedule: Q01DX009 (ip), vehicle: saline 100 % of control | dose: 50.0 mg/kg/injection, schedule: Q01DX009 (ip), vehicle: saline 103 % of control | [15] 108 % of control

CCCCNC(C)(C)C(SSSC(c1ccc(C(F)(F)F)cc1)C(C)(C)NCCCC)c1ccc(C(F)(F)F)cc1 (centres undefined)
inactive: [1] 92 % of control | [2] 94 % of control | [3] 100 % of control

CC(=NCC(=O)O)c1ccccc1
inactive: dose: 25.0 mg/kg/injection, schedule: Q04DX003 (ip), vehicle: saline 93 % of control | [11] 100 % of control | [1] 100 % of control

Nc1ncnc2c1c(CO)cn2C1OC(CO)C(O)C1O (centres undefined)
inactive: dose: 25.0 mg/kg/injection, schedule: Q01DX005 (ip), vehicle: distilled water + Tween-80 109 % of control | dose: 50.0 mg/kg/injection, schedule: Q01DX005 (ip), vehicle: distilled water + Tween-80 117 % of control | dose: 100.0 mg/kg/injection, schedule: Q01DX005 (ip), vehicle: distilled water + Tween-80 113 % of control

C=CCNC(=S)NCCCCCCCCCCCCCCCCCC
inactive: dose: 12.5 mg/kg/injection, schedule: Q01DX009 (ip), vehicle: saline with Tween-80 98 % of control | dose: 25.0 mg/kg/injection, schedule: Q01DX009 (ip), vehicle: saline with Tween-80 98 % of control | [16] 104 % of control

[Cl][Sn]([c]1ccccc1)([c]1ccccc1)[c]1ccccc1
inactive: dose: 2.5 mg/kg/injection, schedule: Q04DX003 (ip), vehicle: saline 91 % of control | dose: 5.0 mg/kg/injection, schedule: Q04DX003 (ip), vehicle: saline 100 % of control | dose: 10.0 mg/kg/injection, schedule: Q04DX003 (ip), vehicle: saline with Tween-80 97 % of control | dose: 10.0 mg/kg/injection, schedule: Q04DX003 (ip), vehicle: saline 96 % of control

O=S(=O)(F)c1cccc(Cl)c1C[P+](c1ccccc1)(c1ccccc1)c1ccccc1
inactive: dose: 12.5 mg/kg/injection, schedule: Q01DX001 (ip), vehicle: Klucel (hydroxypropylcellulose) (HPC) 103 % of control | dose: 25.0 mg/kg/injection, schedule: Q01DX001 (ip), vehicle: Klucel (hydroxypropylcellulose) (HPC) 115 % of control

CC1OC(O)C(O)C(O)C1O (centres undefined)
inactive: dose: 100.0 mg/kg/injection, schedule: Q01DX001 (ip), vehicle: saline 102 % of control | dose: 200.0 mg/kg/injection, schedule: Q01DX001 (ip), vehicle: saline 100 % of control | dose: 400.0 mg/kg/injection, schedule: Q01DX001 (ip), vehicle: saline 100 % of control

Nc1nc(-c2cccc([N+](=O)[O-])c2)c(N=Nc2ccccc2)s1
inactive: [4] 95 % of control | [5] 100 % of control

CSC(=S)N(C)/N=C/c1cccc(C)n1
inactive: [8] 96 % of control | [9] 102 % of control | [10] 102 % of control

CC(C)(C)OC(=O)NC(Cc1ccc(OCc2ccccc2)cc1)C(=O)O (centres undefined)
inactive: [8] 95 % of control | [9] 101 % of control

COC1=CCC2=C(C1)C1(C)CCCC(C)(CO)C1CC2 (centres undefined)
inactive: [8] 94 % of control | [9] 92 % of control | [10] 97 % of control

O=C(Cl)c1ccc([N+](=O)[O-])cc1
inactive: [16] 96 % of control | dose: 100.0 mg/kg/injection, schedule: Q01DX009 (ip), vehicle: saline with Tween-80 101 % of control | dose: 200.0 mg/kg/injection, schedule: Q01DX009 (ip), vehicle: saline with Tween-80 104 % of control

CN(Cc1cnc2nc(N)nc(N)c2n1)c1ccc(C(=O)NC(CCC(=O)OC(C)(C)C)C(=O)OC(C)(C)C)cc1 (centres undefined)
inactive: dose: 1.56 mg/kg/injection, schedule: Q01DX009 (ip), vehicle: saline with Tween-80 112 % of control | dose: 3.12 mg/kg/injection, schedule: Q01DX009 (ip), vehicle: saline with Tween-80 121 % of control | dose: 4.5 mg/kg/injection, schedule: Q01DX009 (ip), vehicle: saline with Tween-80 111 % of control

O=C(O)c1c(Sc2ccccc2)cccc1Sc1ccccc1
inactive: dose: 25.0 mg/kg/injection, schedule: Q04DX002 (ip), vehicle: saline with Tween-80 93 % of control | dose: 50.0 mg/kg/injection, schedule: Q04DX002 (ip), vehicle: saline with Tween-80 93 % of control | [4] 89 % of control | [12] 93 % of control | [5] 93 % of control | [13] 95 % of control | [6] 90 % of control | [14] 87 % of control
